Results reported in ChEMBL document CHEMBL3259536, “New 2H-chromene-3-carboxamide derivatives: design, synthesis and use as inhibitors of hMAO” (Eur J Med Chem, 2014).

Tests used:
[1] = target: T1, Amine oxidase [flavin-containing] B (Homo sapiens, UniProt P27338); test: Inhibition of human recombinant MAO-B expressed in baculovirus infected insect cell microsomes assessed as p-tyramine conversion to resorufin and H2O2 at 60 uM after 15 mins by fluorimetric assay; conditions: 0.25 h
T1 sequence (P27338 whole entry): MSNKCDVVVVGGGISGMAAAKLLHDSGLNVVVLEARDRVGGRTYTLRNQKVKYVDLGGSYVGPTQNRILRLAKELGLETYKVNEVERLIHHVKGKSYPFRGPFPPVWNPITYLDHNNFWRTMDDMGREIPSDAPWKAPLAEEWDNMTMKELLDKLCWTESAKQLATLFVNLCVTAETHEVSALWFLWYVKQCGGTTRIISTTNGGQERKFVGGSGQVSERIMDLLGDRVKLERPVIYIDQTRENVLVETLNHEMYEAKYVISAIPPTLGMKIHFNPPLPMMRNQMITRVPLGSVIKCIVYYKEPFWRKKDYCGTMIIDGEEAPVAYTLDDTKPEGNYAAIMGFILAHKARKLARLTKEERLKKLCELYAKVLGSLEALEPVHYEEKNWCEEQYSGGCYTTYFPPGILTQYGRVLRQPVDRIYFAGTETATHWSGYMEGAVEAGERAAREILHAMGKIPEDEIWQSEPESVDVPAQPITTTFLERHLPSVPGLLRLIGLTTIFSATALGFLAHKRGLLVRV

[2] = target: T2, Amine oxidase [flavin-containing] A (Homo sapiens, UniProt P21397); test: Inhibition of human recombinant MAO-A expressed in baculovirus infected insect cell microsomes assessed as p-tyramine conversion to resorufin and H2O2 at 60 uM after 15 mins by fluorimetric assay; conditions: 0.25 h
T2 sequence (P21397 whole entry): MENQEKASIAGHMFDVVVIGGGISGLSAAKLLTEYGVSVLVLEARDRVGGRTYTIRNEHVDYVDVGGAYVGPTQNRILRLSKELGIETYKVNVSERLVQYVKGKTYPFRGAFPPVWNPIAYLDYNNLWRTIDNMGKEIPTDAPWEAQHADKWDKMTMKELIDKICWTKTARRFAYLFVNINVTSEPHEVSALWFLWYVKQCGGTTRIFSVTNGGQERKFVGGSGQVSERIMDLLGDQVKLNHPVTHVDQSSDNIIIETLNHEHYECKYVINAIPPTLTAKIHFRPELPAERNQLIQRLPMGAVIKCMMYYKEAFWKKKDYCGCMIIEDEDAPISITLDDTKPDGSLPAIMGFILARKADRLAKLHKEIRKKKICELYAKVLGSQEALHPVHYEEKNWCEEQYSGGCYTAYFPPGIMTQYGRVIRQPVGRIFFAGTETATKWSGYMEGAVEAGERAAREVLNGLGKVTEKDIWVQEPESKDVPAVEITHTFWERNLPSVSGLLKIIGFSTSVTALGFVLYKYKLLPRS

[3] = target: T1, Amine oxidase [flavin-containing] B; test: Inhibition of human recombinant MAO-B expressed in baculovirus infected insect cell microsomes assessed as p-tyramine conversion to resorufin and H2O2 after 15 mins by fluorimetric assay
Homo sapiens = species on record: Homo sapiens; test: Selectivity index, ratio of IC50 for human recombinant MAO-A to IC50 for human recombinant MAO-B
[4] = target: T2, Amine oxidase [flavin-containing] A; test: Inhibition of human recombinant MAO-A expressed in baculovirus infected insect cell microsomes assessed as p-tyramine conversion to resorufin and H2O2 after 15 mins by fluorimetric assay

Row | Structure (SMILES) | inhibition (INH) [1] | inhibition (INH) [2] | IC50 [3] | Ratio IC50 (Homo sapiens) | IC50 [4]
1 | O=C(c1cc2cc(Br)cc(Br)c2oc1=O)N(c1ccccc1)c1ccccc1 | Not Active | Not Active | – | – | –
2 | O=C(Nc1cccc(C(F)(F)F)c1)c1cc2ccccc2oc1=O | – | Not Active | – | – | –
3 | O=C(NCCCN1CCOCC1)c1cc2ccccc2oc1=O | – | – | 13.5 µM | 3.1 | 42.3 µM
4 | Cc1ccccc1NC(=O)c1cc2cc(Br)cc(Br)c2oc1=O | – | Not Active | 4.68 µM | 12.8 | –
5 | Cc1cccc(NC(=O)c2cc3cc(Br)cc(Br)c3oc2=O)c1 | – | Not Active | 21.5 µM | 2.78 | –
6 | CCCCCCN(CCCCCC)C(=O)c1cc2ccccc2oc1=O | – | – | 8.05 µM | 1.8 | 14.2 µM
7 | COc1ccccc1NC(=O)c1cc2ccccc2oc1=O | – | Not Active | 35.4 µM | 1.7 | –
8 | O=C(c1cc2ccccc2oc1=O)N(c1ccccc1)c1ccccc1 | Not Active | Not Active | – | – | –
9 | Cc1ccccc1NC(=O)c1cc2cc([N+](=O)[O-])ccc2oc1=O | – | Not Active | 29.4 µM | 2 | –

More lines, now with the values ahead:

Row | inhibition (INH) [1] | inhibition (INH) [2] | IC50 [3] | Ratio IC50 (Homo sapiens) | IC50 [4] | Structure (SMILES)
10 | – | – | 19.1 µM | 1.97 | 37.5 µM | CCC(C)NC(=O)c1cc2cc([N+](=O)[O-])ccc2oc1=O (centres undefined)
11 | – | Not Active | 7.09 µM | 8.46 | – | O=C(Nc1cccc(C(F)(F)F)c1)c1cc2cc(Br)cc(Br)c2oc1=O
12 | – | Not Active | 39.1 µM | 1.5 | – | Cc1cccc(NC(=O)c2cc3cc([N+](=O)[O-])ccc3oc2=O)c1
13 | – | Not Active | 22.8 µM | 2.6 | – | O=C(Nc1cccc(C(F)(F)F)c1)c1cc2cc([N+](=O)[O-])ccc2oc1=O
14 | – | – | 14.7 µM | 2.1 | 31.5 µM | CC(C)(C)NC(=O)c1cc2cc(Br)cc(Br)c2oc1=O
15 | – | Not Active | 46.1 µM | 1.3 | – | O=C(NCCCN1CCOCC1)c1cc2cc([N+](=O)[O-])ccc2oc1=O
16 | – | Not Active | 50 µM | 1.2 | – | COc1ccccc1NC(=O)c1cc2cc([N+](=O)[O-])ccc2oc1=O
17 | – | – | 10.6 µM | 3.1 | 32.4 µM | O=C(NCCCN1CCOCC1)c1cc2cc(Br)cc(Br)c2oc1=O
18 | – | Not Active | – | – | – | Cc1cccc(NC(=O)c2cc3ccccc3oc2=O)c1
19 | – | Not Active | 2.96 µM | 20.3 | – | Cc1ccccc1NC(=O)c1cc2ccccc2oc1=O
20 | – | Not Active | 20.2 µM | 2.97 | – | COc1ccccc1NC(=O)c1cc2cc(Br)cc(Br)c2oc1=O
